Results: paper PMC5522996, “Big conductance calcium‐activated potassium channel openers control spasticity without sedation” (British Journal of Pharmacology, 2017)

Key:
GPR55‐deficient ABH mice = test: Spasticity in GPR55‐deficient mice; type: in vivo, mouse; conditions: 10 mg·kg^−1 i.v.
[1] = Stability in pooled mouse liver microsomes; type: in vitro ADME; conditions: pooled mouse liver microsomes, 37°C, upper limit 100 min, read-out: t ½ in liver microsomes
Method: The stability of compounds when subjected to hepatic and plasma degradation was assessed in vitro by Inpharmatica, Cambridge, UK. Compounds (1 μM) were incubated with either pooled mouse liver microsomes (0.1 mg protein mL^−1) or pooled mouse plasma at 37°C for 0, 5, 10, 20 and 40 min before termination with acetonitrile containing warfarin as an analytical internal standard. Samples were centrifuged, and the resultant supernatant analysed for parent compound. The mass responses at baseline were taken as the 100% reference values against which the disappearance of the compound was measured. The natural log of the % remaining values was used to generate linear plots of disappearance of the compounds. Half‐life values were calculated from the slope of these plots. Hepatocyte metabolism was assessed by Cyprotex, Macclesfield, and 10 μM VSN16R was incubated with primary mouse, rat, monkey (Macaque) and human hepatocytes for 1 h, and the presence of metabolites was assessed using liquid […] mass spectroscopy. The stability of VSN16R was assessed in vivo by Inpharmatica, Cyprotex and Charles Rivers, Cambridge. Blood (plasma) samples were obtained prior to and 5 min to 24 h after drug administration of 2–5 mg·kg^−1 i.v. or 5 mg·kg^−1 p.o. VSN16R into outbred mice and rats (n = 3 per time point). […] Data are expressed as mean ± SEM. […]

mouse Gpr55 = target: T1, mouse Gpr55 (Mus musculus, UniProt Q3UJF0); test: Nuclear CREB expression, DBT cells transfected with mouse Gpr55; type: cell-based; conditions: 10 μM
T1 construct: expressed in transfected cells; host or cells: DBT cells
T1 sequence (Q3UJF0 whole entry): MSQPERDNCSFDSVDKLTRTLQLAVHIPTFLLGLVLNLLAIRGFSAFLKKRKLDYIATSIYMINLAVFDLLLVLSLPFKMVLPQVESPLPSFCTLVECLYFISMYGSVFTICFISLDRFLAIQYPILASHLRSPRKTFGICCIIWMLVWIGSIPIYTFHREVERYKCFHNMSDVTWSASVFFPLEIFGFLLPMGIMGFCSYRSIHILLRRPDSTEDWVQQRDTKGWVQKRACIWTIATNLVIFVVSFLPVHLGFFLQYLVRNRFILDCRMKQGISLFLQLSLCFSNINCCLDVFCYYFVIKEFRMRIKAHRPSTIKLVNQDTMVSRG

α1(non-selective) = test: Receptor binding profile of VSN16R; parameters: species or system human; conditions: 10µM VSN16R
CB1 = target: T2, CB1 (Homo sapiens, UniProt P21554); test: Receptor binding profile of VSN16R
T2 construct: purchased Cerep; Chantest; DiscoveRx; Multispan; MDS Pharma Services
T2 sequence (P21554 whole entry): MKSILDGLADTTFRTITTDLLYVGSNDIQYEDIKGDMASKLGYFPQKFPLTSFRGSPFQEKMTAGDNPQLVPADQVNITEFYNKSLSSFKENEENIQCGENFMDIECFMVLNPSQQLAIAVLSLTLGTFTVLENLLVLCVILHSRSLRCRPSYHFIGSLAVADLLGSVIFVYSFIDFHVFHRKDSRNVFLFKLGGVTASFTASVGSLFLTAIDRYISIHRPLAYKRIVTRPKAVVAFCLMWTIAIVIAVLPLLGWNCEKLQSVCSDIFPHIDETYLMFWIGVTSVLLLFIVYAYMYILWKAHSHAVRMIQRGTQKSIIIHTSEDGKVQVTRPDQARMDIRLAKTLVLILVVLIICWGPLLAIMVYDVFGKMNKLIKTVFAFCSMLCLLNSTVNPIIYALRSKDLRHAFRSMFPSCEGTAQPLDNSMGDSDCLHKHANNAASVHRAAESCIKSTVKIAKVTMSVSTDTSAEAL

H2 = target: T3, H2 (Homo sapiens, UniProt P25021); test: Receptor binding profile of VSN16R; conditions: 10µM VSN16R
T3 construct: purchased Cerep; Chantest; DiscoveRx; Multispan; MDS Pharma Services
T3 sequence (P25021 whole entry): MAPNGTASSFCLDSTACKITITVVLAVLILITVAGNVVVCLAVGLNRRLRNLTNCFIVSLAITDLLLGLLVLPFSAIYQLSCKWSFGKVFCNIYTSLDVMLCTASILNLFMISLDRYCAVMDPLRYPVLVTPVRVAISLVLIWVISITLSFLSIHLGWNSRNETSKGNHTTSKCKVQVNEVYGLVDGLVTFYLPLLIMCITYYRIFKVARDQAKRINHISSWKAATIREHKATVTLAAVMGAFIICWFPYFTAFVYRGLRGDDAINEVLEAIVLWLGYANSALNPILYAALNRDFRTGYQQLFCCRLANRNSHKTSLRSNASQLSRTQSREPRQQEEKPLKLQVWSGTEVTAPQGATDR

NT1 = target: T4, NT1 (Homo sapiens, UniProt P30989); test: Receptor binding profile of VSN16R; conditions: 10µM VSN16R
T4 construct: purchased Cerep; Chantest; DiscoveRx; Multispan; MDS Pharma Services
T4 sequence (P30989 whole entry): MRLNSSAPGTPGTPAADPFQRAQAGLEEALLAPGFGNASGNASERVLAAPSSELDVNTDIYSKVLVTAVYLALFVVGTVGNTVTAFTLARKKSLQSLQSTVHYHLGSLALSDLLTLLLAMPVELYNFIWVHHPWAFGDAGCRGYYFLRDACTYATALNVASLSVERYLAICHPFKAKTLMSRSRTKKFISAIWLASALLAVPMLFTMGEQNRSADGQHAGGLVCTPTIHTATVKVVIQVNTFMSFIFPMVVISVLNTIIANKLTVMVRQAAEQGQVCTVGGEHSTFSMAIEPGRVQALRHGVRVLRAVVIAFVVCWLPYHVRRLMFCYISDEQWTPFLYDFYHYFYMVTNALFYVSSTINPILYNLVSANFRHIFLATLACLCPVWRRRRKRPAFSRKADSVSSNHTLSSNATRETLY

5-HT2A = target: T5, 5-HT2A (Homo sapiens, UniProt P28223); test: Receptor binding profile of VSN16R; conditions: 10µM VSN16R
T5 construct: purchased Cerep; Chantest; DiscoveRx; Multispan; MDS Pharma Services
T5 sequence (P28223 whole entry): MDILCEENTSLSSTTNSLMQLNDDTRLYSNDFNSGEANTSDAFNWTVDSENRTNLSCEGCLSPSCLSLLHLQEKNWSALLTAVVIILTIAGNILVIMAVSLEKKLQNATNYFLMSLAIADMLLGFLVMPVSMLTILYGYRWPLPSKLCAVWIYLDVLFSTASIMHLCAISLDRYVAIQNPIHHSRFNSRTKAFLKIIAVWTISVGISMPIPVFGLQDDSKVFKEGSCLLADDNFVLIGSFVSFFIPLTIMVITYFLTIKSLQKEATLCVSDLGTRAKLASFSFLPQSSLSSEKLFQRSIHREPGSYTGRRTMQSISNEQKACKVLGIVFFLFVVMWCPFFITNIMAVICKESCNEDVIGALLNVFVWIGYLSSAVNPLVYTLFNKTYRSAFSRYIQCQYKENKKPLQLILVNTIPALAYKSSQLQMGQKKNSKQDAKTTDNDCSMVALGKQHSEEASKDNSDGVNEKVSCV

sst(non-selective) = test: Receptor binding profile of VSN16R; parameters: species or system human; conditions: 10µM VSN16R
[2] = system: Ca2+ channel (L verapamil site); test: Receptor binding profile of VSN16R; parameters: species or system human; conditions: 10µM VSN16R
monoglycerol lipase = target: T6, monoglycerol lipase (Homo sapiens, UniProt Q99685); test: Receptor binding profile of VSN16R; conditions: 10µM VSN16R
T6 construct: purchased Cerep; Chantest; DiscoveRx; Multispan; MDS Pharma Services
T6 sequence (Q99685 whole entry): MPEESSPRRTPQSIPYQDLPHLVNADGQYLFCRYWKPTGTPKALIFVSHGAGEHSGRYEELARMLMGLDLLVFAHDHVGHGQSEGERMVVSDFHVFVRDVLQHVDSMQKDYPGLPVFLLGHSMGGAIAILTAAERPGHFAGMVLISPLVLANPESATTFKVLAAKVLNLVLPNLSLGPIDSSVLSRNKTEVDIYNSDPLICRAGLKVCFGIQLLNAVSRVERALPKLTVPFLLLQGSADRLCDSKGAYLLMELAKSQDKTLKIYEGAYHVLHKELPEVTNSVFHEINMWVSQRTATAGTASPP

GPR35 = target: T7, GPR35 (Homo sapiens, UniProt Q9HC97); test: Receptor binding profile of VSN16R; conditions: 10µM VSN16R
T7 construct: purchased Cerep; Chantest; DiscoveRx; Multispan; MDS Pharma Services
T7 sequence (Q9HC97 whole entry): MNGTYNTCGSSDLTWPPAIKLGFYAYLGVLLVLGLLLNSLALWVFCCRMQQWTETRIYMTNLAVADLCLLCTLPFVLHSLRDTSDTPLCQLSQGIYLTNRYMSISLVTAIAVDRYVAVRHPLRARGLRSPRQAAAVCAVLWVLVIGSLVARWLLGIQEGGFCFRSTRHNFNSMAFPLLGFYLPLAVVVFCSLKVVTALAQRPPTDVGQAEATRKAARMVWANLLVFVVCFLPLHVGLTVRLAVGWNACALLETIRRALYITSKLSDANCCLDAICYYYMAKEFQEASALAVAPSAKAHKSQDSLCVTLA

TrK B = target: T8, TrK B (Homo sapiens, UniProt Q16620); test: Receptor binding profile of VSN16R; conditions: 10µM VSN16R
T8 construct: purchased Cerep; Chantest; DiscoveRx; Multispan; MDS Pharma Services
T8 sequence (Q16620 32-822): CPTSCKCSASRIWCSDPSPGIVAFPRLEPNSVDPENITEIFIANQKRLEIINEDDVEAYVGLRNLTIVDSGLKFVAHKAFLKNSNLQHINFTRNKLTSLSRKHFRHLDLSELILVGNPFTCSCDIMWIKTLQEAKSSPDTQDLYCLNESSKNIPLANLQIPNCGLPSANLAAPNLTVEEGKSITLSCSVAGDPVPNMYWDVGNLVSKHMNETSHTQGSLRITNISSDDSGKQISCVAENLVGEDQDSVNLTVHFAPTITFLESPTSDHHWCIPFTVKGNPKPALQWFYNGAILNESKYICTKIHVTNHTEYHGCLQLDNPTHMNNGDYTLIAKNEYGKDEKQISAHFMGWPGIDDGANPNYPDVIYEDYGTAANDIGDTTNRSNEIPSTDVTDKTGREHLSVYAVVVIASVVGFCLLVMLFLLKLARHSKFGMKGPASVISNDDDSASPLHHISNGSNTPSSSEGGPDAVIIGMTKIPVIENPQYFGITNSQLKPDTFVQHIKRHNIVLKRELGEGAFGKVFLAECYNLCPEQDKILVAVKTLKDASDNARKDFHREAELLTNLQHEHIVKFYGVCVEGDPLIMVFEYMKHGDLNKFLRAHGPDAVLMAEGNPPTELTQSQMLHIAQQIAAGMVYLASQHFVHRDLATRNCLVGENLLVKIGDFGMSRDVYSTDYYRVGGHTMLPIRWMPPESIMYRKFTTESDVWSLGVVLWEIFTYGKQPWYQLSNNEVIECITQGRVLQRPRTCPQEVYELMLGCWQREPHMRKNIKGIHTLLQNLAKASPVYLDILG

CYP450 3A7 = CYP450 3A7 (Homo sapiens, UniProt P24462)
Sequence of CYP450 3A7 (P24462 whole entry): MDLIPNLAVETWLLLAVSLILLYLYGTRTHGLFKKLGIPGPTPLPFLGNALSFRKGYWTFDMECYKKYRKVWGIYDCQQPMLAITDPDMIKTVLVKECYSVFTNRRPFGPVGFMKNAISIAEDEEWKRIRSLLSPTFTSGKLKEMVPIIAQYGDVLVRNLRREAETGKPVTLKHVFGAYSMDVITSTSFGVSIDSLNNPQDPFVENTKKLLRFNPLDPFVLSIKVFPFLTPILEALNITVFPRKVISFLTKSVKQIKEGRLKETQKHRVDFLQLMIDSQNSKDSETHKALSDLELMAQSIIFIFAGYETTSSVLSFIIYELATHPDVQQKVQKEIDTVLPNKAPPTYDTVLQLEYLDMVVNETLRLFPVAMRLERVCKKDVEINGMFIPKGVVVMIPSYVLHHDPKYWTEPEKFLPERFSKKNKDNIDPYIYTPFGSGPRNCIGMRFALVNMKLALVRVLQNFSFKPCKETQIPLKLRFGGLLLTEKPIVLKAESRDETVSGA

[3] = system: spastic ABH mice with EAE; test: Spasticity: resistance to hindlimb flexion against a strain gauge
healthy humans = test: Phase I single dose: coagulation, urinanalysis, vital signs, electrocardiograms; conditions: for Electrocardiogram Heart Rate / PR Duration / QRS Duration / QT Duration / RR Duration: Day 1; for Activated Partial Thrombin Time / Partial Prothrombin Time / Supine Diastolic Blood Pressure / Supine Pulse Rate / Supine Respiratory Rate / Supine Systolic Blood Pressure / Supine Temperature / Thrombin Time / Urinanalysis Ketones / Urinanalysis Specific Gravity / Urinanalysis pH / Urine Bilirubin / Urine Glucose / Urine Protein / Urine RBC: Day 2

C[C@H](CO)NC(=O)c1cccc(/C=C\CCCC(=O)N(C)C)c1 [VSN16R]
Inhibition of spasticity (GPR55‐deficient ABH mice): continued to inhibit spasticity | half-life at 1 μM [1]: > 100 min | Activity on DBT cells transfected with mouse Gpr55 (mouse Gpr55): Lack of activity | Activity (α1(non-selective)): Negligible Activity | Activity (CB1; 10µM VSN16R): Negligible Activity | Binding or agonism at CB1 receptors (CB1; receptor‐transfected cell line‐based assays): does not bind to or agonize | Activity (H2): Negligible Activity | Activity (NT1): Negligible Activity | Activity (5-HT2A): Negligible Activity | Activity (sst(non-selective)): Negligible Activity | Activity [2]: Negligible Activity | Activity (monoglycerol lipase): Negligible Activity | Activity (GPR35): Negligible Activity | Activity (TrK B): Negligible Activity | IC50 (CYP450 3A7): > 10 µM | Inhibition of spasticity ([3]; 0.5 mg·kg^−1 p.o.): failed to produce rapid muscular relaxation and inhibition of spasticity | Inhibition of spasticity ([3]; 1 mg·kg^−1 p.o.): significant therapeutic activity was evident within 10 min | Inhibition of spasticity ([3]; 5 mg·kg^−1 i.v.): slightly more active than VSN16S | Inhibition of spasticity ([3]; 5 mg·kg^−1 p.o.): significant therapeutic activity was evident within 10 min | Mean group score, resistance to flexion (±SD), one mean per animal ([3]; 5 mg·kg^−1 p.o., 30 min): 0.224 ± 0.067 N | Mean group score, resistance to flexion (±SD), one mean per animal ([3]; 5 mg·kg^−1 p.o., 60 min): 0.214 ± 0.071 N | Therapeutic effect after repeated daily administration ([3]; 40 mg·kg^−1 p.o. for 7 days): therapeutic effect was sustained | Drop of resistance to flexion from baseline ([3]; 40 mg·kg^−1 p.o., visibly spastic animals): 17.8 ± 5.3% | Resistance to flexion force ([3]; 2 weeks after cessation of weekly treatment, mean ± SEM): 0.157 ± 0.045 N | Duration of inhibition of spasticity ([3]; single dose of 40 mg·kg^−1 p.o.): over 6 h | Electrocardiogram Heart Rate (healthy humans; 25mg): 59 ± 12 beats per min | PR Duration (healthy humans; 25mg): 184 ± 20 ms | QRS Duration (healthy humans; 25mg): 98 ± 9 ms | QT Duration (healthy humans; 25mg): 388 ± 26 ms | RR Duration (healthy humans; 25mg): 1044 ± 185 ms | Activated Partial Thrombin Time (healthy humans; 25mg): 26.4 ± 0.9 s | Partial Prothrombin Time (healthy humans; 25mg): 10.8 ± 0.3 s | Supine Diastolic Blood Pressure (healthy humans; 25mg): 65 ± 4 mmHg | Supine Pulse Rate (healthy humans; 25mg): 61 ± 15 beats per min | Supine Respiratory Rate (healthy humans; 25mg): 14 ± 2 Breath/min | Supine Systolic Blood Pressure (healthy humans; 25mg): 117 ± 9 mmHg | Supine Temperature (healthy humans; 25mg): 36.6 ± 0.2 ˚C | Thrombin Time (healthy humans; 25mg): 16.2 ± 0.8 s | Urinanalysis Ketones (healthy humans; 25mg): 0.0 ± 0.0 mmol/L | Urinanalysis Specific Gravity (healthy humans; 25mg): 1.016 ± 0.012 | Urinanalysis pH (healthy humans; 25mg): 7.0 ± 0.6 | Urine Bilirubin (healthy humans; 25mg): 0.0 ± 0.0 µmol/L | Urine Glucose (healthy humans; 25mg): 0.0 ± 0.0 mmol/L | Urine Protein (healthy humans; 25mg): 0.08 ± 0.10 g/L | Urine RBC (healthy humans; 25mg): 0.0 ± 0.0 mg/L | Electrocardiogram Heart Rate (healthy humans; 800mg): 67 ± 8 beats per min | PR Duration (healthy humans; 800mg): 164 ± 16 ms | QRS Duration (healthy humans; 800mg): 98 ± 7 ms | QT Duration (healthy humans; 800mg): 383 ± 19 ms | RR Duration (healthy humans; 800mg): 903 ± 122 ms | Activated Partial Thrombin Time (healthy humans; 800mg): 24.9 ± 1.9 s | Partial Prothrombin Time (healthy humans; 800mg): 10.9 ± 0.5 s | Supine Diastolic Blood Pressure (healthy humans; 800mg): 71 ± 9 mmHg | Supine Pulse Rate (healthy humans; 800mg): 65 ± 9 beats per min | Supine Respiratory Rate (healthy humans; 800mg): 16 ± 2 Breath/min | Supine Systolic Blood Pressure (healthy humans; 800mg): 118 ± 10 mmHg | Supine Temperature (healthy humans; 800mg): 36.6 ± 0.2 ˚C | Thrombin Time (healthy humans; 800mg): 15.9 ± 1.2 s | Urinanalysis Ketones (healthy humans; 800mg): 0.0 ± 0.0 mmol/L | Urinanalysis Specific Gravity (healthy humans; 800mg): 1.017 ± 0.009 | Urinanalysis pH (healthy humans; 800mg): 6.0 ± 0.4 | Urine Bilirubin (healthy humans; 800mg): 0.0 ± 0.0 µmol/L | Urine Glucose (healthy humans; 800mg): 0.0 ± 0.0 mmol/L | Urine Protein (healthy humans; 800mg): 0.06 ± 0.08 g/L | Urine RBC (healthy humans; 800mg): 0.0 ± 0.0 mg/L
